viability, T/C and IC50 data for eleven compounds are collected here from PubChem BioAssay AID2060494 (Molecular Pharmacology Branch, DTP, NCI, 2025).

For this assay, the system named is 435261-313-R-J1-PDC complex spheroid viability. Put plainly: Anticancer human tumor 435261-313-R-J1-PDC patient-derived colon adenocarcinoma cell line growth inhibition [GQUAD]. The note with it: for viability, T/C: stronger effect = lower value. The text has this: DNA G-quadruplex Stabilizer Agents in Combinations in Complex Spheroids
A high-throughput screen of multi-cell type tumor spheroids was designed to identify active combinations of DNA G-quadruplex stabilizer agents and targeted small molecules. Complex spheroids include a stromal component modeled by human endothelial cells (HUVEC) and fibroblasts modeled by human mesenchymal stem cells (MSCs). The concentration ranges selected for each drug and investigational agent were based upon clinically achievable concentrations if the clinical Cmax of the agent was known.
Compounds. The drugs and investigational agents: pidnarulex (CX-5461; NSC782164), APTO-253 (NSC789042), BRACO-19 (NSC847499), peposertib (NSC802822), ceralasertib (NSC780249), elimusertib (NSC800525), camonsertib (NSC841442), AZD-1390 (NSC803789), olaparib (NSC753686), talazoparib (NSC767125), ART-558 (NSC835418), sotorasib (NSC818433), MRTX-1133 (NSC836407), SN-38 (NSC673596), topotecan (NSC609699), etoposide (NSC141540), doxorubicin (NSC123127), gemcitabine (NSC613327), 5-fluorouracil (NSC19893), paclitaxel (NSC125973), vemurafenib (NSC761431), panobinostat (NSC761190), R-306465 (JNJ-16241199; NSC773264), adavosertib (NSC754352), TP-3654 (NSC805149), carboplatin (NSC241240), KSQ-4279 (NSC840948), and staurosporine (NSC755774) were obtained from the National Cancer Institute (NCI) Developmental Therapeutics Program Chemical Repository (34). The FDA-approved anticancer drug set is available from the NCI Developmental Therapeutics Program. […] The stock solutions were prepared in dimethyl sulfoxide (DMSO, Sigma-Aldrich, St. Louis, MO, cat. D2650) at 800-fold the tested concentration and stored at -70 degrees C prior to their use. All drugs and investigational agents were tested over a range starting from a high concentration at or near the clinical Cmax and decreasing in half-log increments. If the clinical Cmax for an agent had not been determined, the highest concentration tested was 10 microM.
2.3 Cell Culture. All cells were maintained in an incubator at 37 degrees C and 5% CO2 with 95% humidity. The PDC lines were cultured according to standard operating procedures established by the NCI PDMR. All PDCs were thawed and cultured in Matrigel-coated flasks prepared with a working solution of 1X Ham's F-12 nutrient mix, without supplementation (Invitrogen, cat. 11765054), 100 U/mL penicillin-streptomycin (Invitrogen, cat. 15140122), and 2.5% Matrigel (Corning Inc., cat. 354248) for the first three passages. The 857933-349-R-J2-PDC line was cultured in 6C/Colon 1B media, which includes advanced DMEM/F-12 (Thermo Fisher Scientific, cat. 12634028), 10 mM HEPES (Thermo Fisher Scientific, cat. 15630080), 1X GlutaMAX supplement (Thermo Fisher Scientific, cat. 35050061), 0.1 mg/mL primocin (InvivoGen, cat. ant-pm-2), 10% defined fetal bovine serum, heat inactivated (HyClone Laboratories Inc., cat. SH30070.03HI), 50% L-WRN conditioned media (ATCC, cat. CRL-3276), 1.25 mM N-Acetyl-L-cysteine (Sigma-Aldrich, cat. A9165), 10 mM nicotinamide (Sigma-Aldrich, cat. N0636), 1X B-27 supplement (Thermo Fisher Scientific, cat. 17504044), 1X N-2 supplement (Thermo Fisher Scientific, cat. 17502048), 10 microM Y-27632 dihydrochloride (Tocris Bioscience, cat. 1254), and 50 ng/mL human EGF recombinant protein (Thermo Fisher Scientific, cat. PHG0311). The 485176-168-R4-J1-PDC line was cultured in Panc media, which includes all 6C/Colon 1B media components plus 100 ng/mL human FGF-10 (Thermo Fisher Scientific, cat. 100-26), 500 nM SB-431542 (Selleckchem, cat. S1067), and gastrin (Tocris, cat. 3006).
[…]

Where “and” joins values, the source holds several entries; their conditions need not be identical. Identical values can stand only once.
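Further: spheroids exposed to the agents for seven days before readout.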
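Wherever viability, T/C is given: percent of vehicle control viability with DMSO wells as 100%.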

For orientation: viability, T/C means the result in the treated group divided by that in the control group, in per cent. What is called IC50 is the point on the concentration scale where inhibition reaches its midpoint. In the case of `COc1cc(C2c3cc4c(cc3C(OC3OC5COC(C)OC5C(O)C3O)C3COC(=O)C23)OCO4)cc(OC)c1O` (centres undefined), the viability, T/C was 118% and 96.2% (compound 0.0316 µM); 67.4% and 93.6% (compound 0.1 µM); 83.6% and 91.3% (compound 0.316 µM); 56.6% and 80.2% (compound 1 µM); 62.7% and 78.5% (compound 3.16 µM); 52.2% and 61.6% (compound 10 µM). Besides, the 50% inhibitory concentration (IC50) (curve of compound) was greater than 10 µM.

As for `COc1ccc([C@@H](O)c2cc(-c3ncnc4cc(N5CCOCC5)ccc34)c(F)cc2Cl)nn1`, the viability, T/C is 105% and 99% and 90.9% (compound 0.0316 µM); 69.6% and 82.1% and 74.6% (compound 0.1 µM); 81.5% and 103% and 90.2% (compound 0.316 µM); 62.6% and 71.3% and 49.3% (compound 1 µM); 38.6% and 47.8% and 37.7% (compound 3.16 µM); 30.6% and 31.7% and 25.6% (compound 10 µM). Further, the IC50 (curve of compound) was 1.93 µM and 2.61 µM and 0.976 µM.

For `COc1cccc2c1C(=O)c1c(O)c3c(c(O)c1C2=O)CC(O)(C(=O)CO)CC3OC1CC(N)C(O)C(C)O1` (centres undefined), the viability, T/C was 94.1% and 85% (compound 0.0316 µM); 67.5% and 76.3% (compound 0.1 µM); 74.4% and 44% (compound 0.316 µM); 37% and 26.8% (compound 1 µM); 2.3% and 1.87% (compound 3.16 µM); 4.42% and 1.38% (compound 10 µM). Besides, the half-inhibitory concentration (IC50) (curve of compound) was 0.656 µM and 0.293 µM.

In the case of `Cc1[nH]c2ccc(F)cc2c1-c1nc2c3cccnc3c3ncccc3c2[nH]1`, the viability, T/C runs as follows: (compound 0.0316 µM) 99.6% [middle of 8 runs]; (compound 3.16 µM) 30.2% [middle of 8 runs]; (compound 10 µM) 24.5% [middle of 8 runs]. Moreover, the IC50 is 1.81 µM [middle of 4 runs] (compound alone, run of 02/20/2024); 1.11 µM and 0.949 µM and 3.31 µM (compound alone, run of 02/26/2024).

On to `Cc1[nH]c2ccccc2c1CCNCc1ccc(/C=C/C(=O)NO)cc1`, for which the viability, T/C runs as follows: (compound 0.000999 µM) 95.4% and 104%; (compound 0.00316 µM) 69.8% and 120%; (compound 0.00999 µM) 57.5% and 73.5%; (compound 0.0316 µM) 78.2% and 87.4%; (compound 0.0999 µM) 38% and 48.4%; (compound 0.316 µM) 7.05% and 6.56%. Where the note is “curve of compound”, the 50% inhibitory concentration (IC50) is 0.069 µM and 0.1 µM.

Regarding `Cc1cccc(N(C)C(=O)C2C(O)CCN2c2nc(C)cc(C(F)(F)F)c2C#N)c1` (centres undefined), the viability, T/C is 102% and 105% and 116% (compound 0.0316 µM); 94.8% and 106% and 102% (compound 0.1 µM); 138% and 103% and 89.8% (compound 0.316 µM); 106% and 93.5% and 114% (compound 1 µM); 100% and 89.1% and 85.5% (compound 3.16 µM); 122% and 94.3% and 84% (compound 10 µM). Besides, under “curve of compound”, the IC50 is greater than 10 µM.

For `Cc1cnc(CNC(=O)c2c(=O)c3ccc(N4CCCN(C)CC4)nc3n3c2sc2ccccc23)cn1`, the viability, T/C reads like this: (compound 0.0316 µM) 74.8% [middle of 10 runs]; (compound 0.1 µM) 64.1% [middle of 10 runs]; (compound 0.316 µM) 57.7% [middle of 10 runs]; (compound 1 µM) 46.2% [middle of 10 runs]; (compound 3.16 µM) 9.54% [middle of 10 runs]; (compound 10 µM) 0.19% [middle of 7 runs].

For `Cn1ncnc1[C@H]1c2n[nH]c(=O)c3cc(F)cc(c23)N[C@@H]1c1ccc(F)cc1`, the viability, T/C is, setting by setting: (compound 0.000999 µM) 129% and 93.2% and 109%; (compound 0.00316 µM) 91% and 87% and 106%; (compound 0.00999 µM) 114% and 98% and 124%; (compound 0.0316 µM) 71.5% and 116% and 74.2%; (compound 0.0999 µM) 101% and 65.9% and 81.1%; (compound 0.316 µM) 81.1% and 72% and 81.4%. The IC50 (curve of compound) was greater than 0.316 µM.

Consider `Nc1ccn(C2OC(CO)C(O)C2(F)F)c(=O)n1` (centres undefined), for which the viability, T/C (compound 0.0316 µM) is 54.8% and 88.1% and 71.3%; the viability, T/C (compound 0.1 µM) was 48.5% and 89.5% and 58.6%; the viability, T/C (compound 0.316 µM) was 54.9% and 84.8% and 61.3%; the viability, T/C (compound 1 µM) was 51.8% and 98.2% and 50.4%; the viability, T/C (compound 3.16 µM) is 58.7% and 76.3% and 69.7%; the viability, T/C (compound 10 µM) was 51.3% and 66.3% and 51.9%. Further, the IC50 (curve of compound) is greater than 10 µM.

In the case of `O=C(c1cc(Cc2n[nH]c(=O)c3ccccc23)ccc1F)N1CCN(C(=O)C2CC2)CC1`, the viability, T/C is 104% and 96% (compound 0.0316 µM); 101% and 90.4% (compound 0.1 µM); 80.2% and 95.2% (compound 0.316 µM); 98.7% and 88.8% (compound 1 µM); 82.4% and 119% (compound 3.16 µM); 71.2% and 80.3% (compound 10 µM). Besides, the half-maximal inhibitory concentration (IC50) (curve of compound) is greater than 10 µM.

On to `O=c1[nH]cc(F)c(=O)[nH]1`, for which the viability, T/C by setting is: (compound 0.0316 µM) 88.6% and 164% and 121%; (compound 0.1 µM) 71.2% and 82.5% and 101%; (compound 0.316 µM) 83% and 89.5% and 119%; (compound 1 µM) 61.4% and 63.8% and 109%; (compound 3.16 µM) 63.2% and 95% and 99.5%; (compound 10 µM) 63.7% and 75% and 70.3%. Further, the IC50 (curve of compound) is greater than 10 µM.
